Measured values from patent US9980943B2, “Methods of treating muscular dystrophy” (BOARD OF REGENTS OF THE NEVADA SYSTEM OF HIGHER EDUCATION, …, priority 2013, dated 2018).

How the values were obtained:
Assay type in all cases: cell-based, mouse
[1] = system: α7 integrin (LacZ reporter in α7+/LacZ myotubes); test: Myotube α7 integrin FDG assay (Burkin assay in myotubes, 96-well); details: for Burkin Assay in Myotubes, value relative to DMSO: SU9516 analogs, 96-well, N=3-6
[2] = system: β-galactosidase in CMV-LacZ C2C12 myoblasts; test: CMV-LacZ secondary screen in C2C12 myoblasts (β-Gal stabilizing assay); details: for CMV-LACZ in Myoblasts, value relative to DMSO: SU9516 analogs, C2C12 CMV-LacZ, N=2; for CMV-LACZ in Myoblasts (β-galactosidase activity relative to DMSO): CMV-LacZ C2C12 myoblasts
In short: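 First, C2C12 myoblasts were transfected with a linearized CMV-LACZ vector and clonal lines selected by FDG β-gal assay. Then cells were exposed to compounds at 0.5, 1, 5, 10, 20 and 40 μM in 96-well format, two replicates each, and β-gal measured.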

[3] = system: β-galactosidase in CMV-LacZ C2C12 myotubes; test: CMV-LacZ secondary screen in C2C12 myotubes (β-Gal stabilizing assay); details: for CMV-LACZ in Myotubes, value relative to DMSO: SU9516 analogs, C2C12 CMV-LacZ, N=2; for CMV-LACZ in Myotubes, signal relative to DMSO: C2C12 CMV-LacZ myotubes, fold relative to DMSO
In short: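 CMV-LacZ C2C12 line (clonal, FDG-screened); myoblasts/myotubes dosed 0.5–40 μM (0.5, 1, 5, 10, 20, 40 μM); n=2 per point; β-gal stabilization read-out.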

[4] = system: α7 integrin (LacZ reporter in α7βgal+/− myoblasts); test: Myoblast α7+/LacZ integrin FDG assay (Burkin assay in myoblasts, 96-well); details: 96-well; for Burkin Assay in Myoblasts, value relative to DMSO: SU9516 analogs, N=3-6; for Burkin Assay in Myoblasts, signal relative to DMSO: α7+/LacZ myoblasts

N#C/C(=C1/C(=O)Nc2ccc(Br)cc21)c1ccccn1 [MLS001013431-01]
Burkin Assay in Myotubes, value relative to DMSO ([1]; 0.5 uM): 1.238 | Burkin Assay in Myotubes, value relative to DMSO ([1]; 1 uM): 1.0097 | Burkin Assay in Myotubes, value relative to DMSO ([1]; 5 uM): 0.8507 | Burkin Assay in Myotubes, value relative to DMSO ([1]; 10 uM): 0.8506 | Burkin Assay in Myotubes, value relative to DMSO ([1]; 20 uM): 0.7376 | Burkin Assay in Myotubes, value relative to DMSO ([1]; 40 uM): 0.7069 | CMV-LACZ in Myoblasts, value relative to DMSO ([2]; 0.5 uM): 0.9906 | CMV-LACZ in Myoblasts, value relative to DMSO ([2]; 1 uM): 1.0640 | CMV-LACZ in Myoblasts, value relative to DMSO ([2]; 5 uM): 0.8366 | CMV-LACZ in Myoblasts, value relative to DMSO ([2]; 10 uM): 0.6673 | CMV-LACZ in Myoblasts, value relative to DMSO ([2]; 20 uM): 0.5904 | CMV-LACZ in Myoblasts, value relative to DMSO ([2]; 40 uM): 0.6670 | CMV-LACZ in Myotubes, value relative to DMSO ([3]; 0.5 uM): 0.8638 | CMV-LACZ in Myotubes, value relative to DMSO ([3]; 1 uM): 1.1257 | CMV-LACZ in Myotubes, value relative to DMSO ([3]; 5 uM): 0.9388 | CMV-LACZ in Myotubes, value relative to DMSO ([3]; 10 uM): 0.9162 | CMV-LACZ in Myotubes, value relative to DMSO ([3]; 20 uM): 1.0682 | CMV-LACZ in Myotubes, value relative to DMSO ([3]; 40 uM): 1.2059 | Burkin Assay in Myoblasts, value relative to DMSO ([4]; 0.5 uM): 1.202 | Burkin Assay in Myoblasts, value relative to DMSO ([4]; 1 uM): 1 | Burkin Assay in Myoblasts, value relative to DMSO ([4]; 5 uM): 0.7077 | Burkin Assay in Myoblasts, value relative to DMSO ([4]; 10 uM): 0.5311 | Burkin Assay in Myoblasts, value relative to DMSO ([4]; 20 uM): 0.4522 | Burkin Assay in Myoblasts, value relative to DMSO ([4]; 40 uM): 0.3362

CCCS(=O)(=O)c1nc(S(=O)(=O)c2ccc(C)cc2)c(N2CCCC2)s1 [MLS000113985-01]
Burkin Assay in Myotubes, α7 integrin LacZ reporter signal relative to DMSO ([1]; 0.5 uM): 0.9882 | Burkin Assay in Myotubes, α7 integrin LacZ reporter signal relative to DMSO ([1]; 1 uM): 1.037 | Burkin Assay in Myotubes, α7 integrin LacZ reporter signal relative to DMSO ([1]; 5 uM): 0.9919 | Burkin Assay in Myotubes, α7 integrin LacZ reporter signal relative to DMSO ([1]; 10 uM): 0.9925 | Burkin Assay in Myotubes, α7 integrin LacZ reporter signal relative to DMSO ([1]; 20 uM): 0.7655 | Burkin Assay in Myotubes, α7 integrin LacZ reporter signal relative to DMSO ([1]; 40 uM): 0.6679 | CMV-LACZ in Myoblasts (β-galactosidase activity relative to DMSO) ([2]; 0.5 uM): 0.9809 | CMV-LACZ in Myoblasts (β-galactosidase activity relative to DMSO) ([2]; 1 uM): 1.0049 | CMV-LACZ in Myoblasts (β-galactosidase activity relative to DMSO) ([2]; 5 uM): 1.0836 | CMV-LACZ in Myoblasts (β-galactosidase activity relative to DMSO) ([2]; 10 uM): 0.9187 | CMV-LACZ in Myoblasts (β-galactosidase activity relative to DMSO) ([2]; 20 uM): 0.2126 | CMV-LACZ in Myoblasts (β-galactosidase activity relative to DMSO) ([2]; 40 uM): 0.1841 | CMV-LACZ in Myotubes, signal relative to DMSO ([3]; 0.5 uM): 1.0629 | CMV-LACZ in Myotubes, signal relative to DMSO ([3]; 1 uM): 1.0638 | CMV-LACZ in Myotubes, signal relative to DMSO ([3]; 5 uM): 1.0031 | CMV-LACZ in Myotubes, signal relative to DMSO ([3]; 10 uM): 1.0241 | CMV-LACZ in Myotubes, signal relative to DMSO ([3]; 20 uM): 1.0541 | CMV-LACZ in Myotubes, signal relative to DMSO ([3]; 40 uM): 1.0482 | Burkin Assay in Myoblasts, signal relative to DMSO ([4]; 0.5 uM): 1.065 | Burkin Assay in Myoblasts, signal relative to DMSO ([4]; 1 uM): 1.018 | Burkin Assay in Myoblasts, signal relative to DMSO ([4]; 5 uM): 0.7898 | Burkin Assay in Myoblasts, signal relative to DMSO ([4]; 10 uM): 0.4804 | Burkin Assay in Myoblasts, signal relative to DMSO ([4]; 20 uM): 0.1779 | Burkin Assay in Myoblasts, signal relative to DMSO ([4]; 40 uM): 0.122

Cc1ccc(N2C(=O)C3NN=C(C(=O)OCc4ccccc4)C3C2=O)cc1 (stereo not drawn) [MLS000588210-01]
Burkin Assay in Myotubes, α7 integrin LacZ reporter signal relative to DMSO ([1]; 0.5 uM): 0.9425 | Burkin Assay in Myotubes, α7 integrin LacZ reporter signal relative to DMSO ([1]; 1 uM): 0.9559 | Burkin Assay in Myotubes, α7 integrin LacZ reporter signal relative to DMSO ([1]; 5 uM): 0.9466 | Burkin Assay in Myotubes, α7 integrin LacZ reporter signal relative to DMSO ([1]; 10 uM): 0.9155 | Burkin Assay in Myotubes, α7 integrin LacZ reporter signal relative to DMSO ([1]; 20 uM): 0.9763 | Burkin Assay in Myotubes, α7 integrin LacZ reporter signal relative to DMSO ([1]; 40 uM): 0.9565 | CMV-LACZ in Myoblasts (β-galactosidase activity relative to DMSO) ([2]; 0.5 uM): 1.2908 | CMV-LACZ in Myoblasts (β-galactosidase activity relative to DMSO) ([2]; 1 uM): 0.9782 | CMV-LACZ in Myoblasts (β-galactosidase activity relative to DMSO) ([2]; 5 uM): 0.7808 | CMV-LACZ in Myoblasts (β-galactosidase activity relative to DMSO) ([2]; 10 uM): 0.9316 | CMV-LACZ in Myoblasts (β-galactosidase activity relative to DMSO) ([2]; 20 uM): 1.0307 | CMV-LACZ in Myoblasts (β-galactosidase activity relative to DMSO) ([2]; 40 uM): 0.9000 | CMV-LACZ in Myotubes, signal relative to DMSO ([3]; 0.5 uM): 1.1263 | CMV-LACZ in Myotubes, signal relative to DMSO ([3]; 1 uM): 1.0853 | CMV-LACZ in Myotubes, signal relative to DMSO ([3]; 5 uM): 0.9182 | CMV-LACZ in Myotubes, signal relative to DMSO ([3]; 10 uM): 1.0815 | CMV-LACZ in Myotubes, signal relative to DMSO ([3]; 20 uM): 1.1322 | CMV-LACZ in Myotubes, signal relative to DMSO ([3]; 40 uM): 1.1656 | Burkin Assay in Myoblasts, signal relative to DMSO ([4]; 0.5 uM): 1.055 | Burkin Assay in Myoblasts, signal relative to DMSO ([4]; 1 uM): 0.9707 | Burkin Assay in Myoblasts, signal relative to DMSO ([4]; 5 uM): 0.9002 | Burkin Assay in Myoblasts, signal relative to DMSO ([4]; 10 uM): 0.9816 | Burkin Assay in Myoblasts, signal relative to DMSO ([4]; 20 uM): 1.136 | Burkin Assay in Myoblasts, signal relative to DMSO ([4]; 40 uM): 0.9611
